Measurements taken from patent US7833967B2, “Synthetic antimicrobial polypeptides” (priority 2003, dated 2010).

Tested on: E. coli TOP10
Assay: Suicide expression system (SES) growth inhibition
Type: cell-based
[1] = Table 5, mixed-motif library, re-tested in the Bioscreen C
[2] = Table 4, variants of SEQ ID NO:10, re-tested in the Bioscreen C
[3] = Table 2, variants of SEQ ID NO:1, re-tested in the Bioscreen C
[4] = Table 3, variants of SEQ ID NO:5, re-tested in the Bioscreen C

| Substance | Growth inhibition (%) [1] [%] | Growth inhibition (%) [2] [%] | also measured |
| --- | --- | --- | --- |
| 291 (RRRPPRLPRPLPVRPPPRVPRPVPFRP; Synthetic antimicrobial peptide) [compound 291] | 90 | – | – |
| 185 (RRRPLRPPIRPPIRPPFRPPFRPPFRP; Synthetic antimicrobial peptide) [compound 185] | – | 79 | – |
| 16 (RRRPPRIPPRFPPRVPPRFPPRVPPRV; Synthetic antimicrobial peptide) [compound 16] | – | – | Growth inhibition (%) [3]: 98% |
| 300 (RRRPPRLPRPVPIRPPPRIPRPIPFRP; Synthetic antimicrobial peptide) [compound 300] | 92 | – | – |
| 275 (RRRPPRLPRPLPIRPPPRLPRPFPVRP; Synthetic antimicrobial peptide) [compound 275] | 92 | – | – |
| 27 (RRRPPRLPPRLPPRLPPRVPPRVPLVSNCSRTKTHLRRGSE; Synthetic antimicrobial peptide) [compound 27] | – | – | Growth inhibition (%) [3]: 90% |
| 152 (RRRPFRPPFRPPFRPPFRPPVRPPIRP; Synthetic antimicrobial peptide) [compound 152] | – | 75 | – |
| 193 (RRRPFRPPIRPPFRPPIRPPFRPPFRP; Synthetic antimicrobial peptide) [compound 193] | – | 81 | – |
| 169 (RRRPIRPPLRPPVRPPFRPPVRPPFRP; Synthetic antimicrobial peptide) [compound 169] | – | 67 | – |
| 280 (RRRPPRLPRPLPLRPPPRFPRPFPVRP; Synthetic antimicrobial peptide) [compound 280] | 97 | – | – |
| 91 (RRRPFRPPVRPPIRPPVRPPFRPPVRP; Synthetic antimicrobial peptide) [compound 91] | – | 52 | – |
| 199 (RRRPLRPPIRPPFRPPVRPPFRPPFRP; Synthetic antimicrobial peptide) [compound 199] | – | 80 | – |
| 219 (RRRPPRLPRPFPFRPPPRVPRPLPFRP; Synthetic antimicrobial peptide) [compound 219] | 93 | – | – |
| 43 (RRRPRPFPRPFPRPIPRPFPRPVPRPV; Synthetic antimicrobial peptide) [compound 43] | – | – | Growth inhibition (%) [4]: 68% |
| 244 (RRRPPRLPRPFPVRPPPRLPRPVPFRP; Synthetic antimicrobial peptide) [compound 244] | 90 | – | – |
| 175 (RRRPFRPPVRPPFRPPLRPPFRPPFRP; Synthetic antimicrobial peptide) [compound 175] | – | 77 | – |
| 76 (RRRPIRPPFRPPIRPPVRPPFRPPIRP; Synthetic antimicrobial peptide) [compound 76] | – | 86 | – |
| 301 (RRRPPRLPRPVPIRPPPRVPRPVPLRP; Synthetic antimicrobial peptide) [compound 301] | 92 | – | – |
| 293 (RRRPPRLPRPVPFRPPPRFPRPFPIRP; Synthetic antimicrobial peptide) [compound 293] | 93 | – | – |
| 180 (RRRPLRPPIRPPIRPPIRPPFRPPFRP; Synthetic antimicrobial peptide) [compound 180] | – | 76 | – |
| 31 (RRRPRPFPRPFPHPFPRPFPRPIPRPI; Synthetic antimicrobial peptide) [compound 31] | – | – | Growth inhibition (%) [4]: 73% |
| 65 (RRRPLRPPLRPPVRPPVRPPFRPPFRP; Synthetic antimicrobial peptide) [compound 65] | – | 89 | – |

| Substance | Growth inhibition (%) [1] [%] | Growth inhibition (%) [2] [%] | also measured |
| --- | --- | --- | --- |
| 51 (RRRPRPFPRPVPRPFPRPFPRPFPRPF; Synthetic antimicrobial peptide) [compound 51] | – | – | Growth inhibition (%) [4]: 77% |
| 186 (RRRPIRPPIRPPIRPPFRPPFRPPFRP; Synthetic antimicrobial peptide) [compound 186] | – | 77 | – |
| 109 (RRRPFRPPIRPPVRPPLRPPVRPPFRP; Synthetic antimicrobial peptide) [compound 109] | – | 71 | – |
| 218 (RRRPPRLPRPFPFRPPPRVPRPIPVRP; Synthetic antimicrobial peptide) [compound 218] | 93 | – | – |
| 261 (RRRPPRLPRPIPVRPPPRIPRPVPFRP; Synthetic antimicrobial peptide) [compound 261] | 92 | – | – |
| 120 (RRRPLRPPFRPPFRPPFRPPVRPPIRP; Synthetic antimicrobial peptide) [compound 120] | – | 68 | – |
| 155 (RRRPFRPPFRPPFRPPFRPPFRPPLRP; Synthetic antimicrobial peptide) [compound 155] | – | 83 | – |
| 6 (RRRRPFPRPFPRPFPRPFPRPFPRPFP; Synthetic antimicrobial peptide) [compound 6] | – | – | Growth inhibition (%) (Table 1, 0.1% inducer (arabinose), pBAD/gIIIA in E. coli TOP10, Bioscreen C 37° C., end point OD450 vs control vector): 57% |
| 298 (RRRPPRLPRPVPFRPPPRVPRPVPLRP; Synthetic antimicrobial peptide) [compound 298] | 92 | – | – |
| 285 (RRRPPRLPRPLPVRPPPRIPRPFPVRP; Synthetic antimicrobial peptide) [compound 285] | 91 | – | – |
| 119 (RRRPIRPPFRPPIRPPFRPPVRPPVRP; Synthetic antimicrobial peptide) [compound 119] | – | 69 | – |
| 92 (RRRPVRPPIRPPFRPPFRPPFRPPFRP; Synthetic antimicrobial peptide) [compound 92] | – | 85 | – |
| 315 (RRRPPRVPRPVPVRPPPRIPRPFPVRP; Synthetic antimicrobial peptide) [compound 315] | 98 | – | – |
| 208 (RRRPPRFPRPFPVRPPPRFPRPIPVRP; Synthetic antimicrobial peptide) [compound 208] | 95 | – | – |
| 131 (RRRPIRPPFRPPFRPPIRPPIRPPVRP; Synthetic antimicrobial peptide) [compound 131] | – | 75 | – |
| 20 (RRRPPRLPPRFPPRFPPRVPPRFPPRV; Synthetic antimicrobial peptide) [compound 20] | – | – | Growth inhibition (%) [3]: 86% |
| 79 (RRRPFRPPFRPPFRPPVRPPVRPPFRP; Synthetic antimicrobial peptide) [compound 79] | – | 82 | – |
| 113 (RRRPLRPPVRPPFRPPVRPPFRPPFRP; Synthetic antimicrobial peptide) [compound 113] | – | 75 | – |
| 101 (RRRPIRPPFRPPLRPPFRPPIRPPIRP; Synthetic antimicrobial peptide) [compound 101] | – | 81 | – |
| 296 (RRRPPRLPRPVPFRPPPRVPRPIPFRP; Synthetic antimicrobial peptide) [compound 296] | 88 | – | – |
| 236 (RRRPPRLPRPFPLRPPPRVPRPVPFRP; Synthetic antimicrobial peptide) [compound 236] | 91 | – | – |
| 137 (RRRPLRPPFRPPFRPPIRPPFRPPVRP; Synthetic antimicrobial peptide) [compound 137] | – | 58 | – |

| Substance | Growth inhibition (%) [1] [%] | Growth inhibition (%) [2] [%] | also measured |
| --- | --- | --- | --- |
| 308 (RRRPPRLPRPVPVRPPPRVPRPVPVRP; Synthetic antimicrobial peptide) [compound 308] | 96 | – | – |
| 179 (RRRPFRPPIRPPIRPPFRPPFRPPFRP; Synthetic antimicrobial peptide) [compound 179] | – | 87 | – |
| 222 (RRRPPRLPRPFPIRPPPRFPRPVPLRP; Synthetic antimicrobial peptide) [compound 222] | 93 | – | – |
| 197 (RRRPFRPPFRPPFRPPFRPPLRPPFRP; Synthetic antimicrobial peptide) [compound 197] | – | 86 | – |
| 118 (RRRPFRPPFRPPLRPPFRPPVRPPLRP; Synthetic antimicrobial peptide) [compound 118] | – | 73 | – |
| 54 (RRRPRPFPRPVPRPVPRPFPRPIPRPL; Synthetic antimicrobial peptide) [compound 54] | – | – | Growth inhibition (%) [4]: 65% |
| 40 (RRRPRPFPRPFPRPFPRPVPRPLPRPI; Synthetic antimicrobial peptide) [compound 40] | – | – | Growth inhibition (%) [4]: 69% |
| 181 (RRRPIRPPIRPPFRPPFRPPFRPPFRP; Synthetic antimicrobial peptide) [compound 181] | – | 83 | – |
| 15 (RRRPPRFPPRIPPRLPPRVPPRVPPRL; Synthetic antimicrobial peptide) [compound 15] | – | – | Growth inhibition (%) [3]: 57% |
| 295 (RRRPPRLPRPVPFRPPPRIPRPFPLRP; Synthetic antimicrobial peptide) [compound 295] | 59 | – | – |
| 232 (RRRPPRLPRPFPLRPPPRLPRPIPVRP; Synthetic antimicrobial peptide) [compound 232] | 92 | – | – |
| 117 (RRRPIRPPIRPPFRPPFRPPIRPPFRP; Synthetic antimicrobial peptide) [compound 117] | – | 77 | – |
| 238 (RRRPPRLPRPFPVRPPPRFPRPFPIRP; Synthetic antimicrobial peptide) [compound 238] | 95 | – | – |
| 209 (RRRPPRIPRPFPIRPPPRFPRPIPFRP; Synthetic antimicrobial peptide) [compound 209] | 78 | – | – |
| 115 (RRRPLRPPFRPPIRPPFRPPFRPPFRP; Synthetic antimicrobial peptide) [compound 115] | – | 79 | – |
| 194 (RRRPLRPPFRPPFRPPIRPPFRPPFRP; Synthetic antimicrobial peptide) [compound 194] | – | 81 | – |
| 251 (RRRPPRLPRPIPFRPPPRIPRPLPFRP; Synthetic antimicrobial peptide) [compound 251] | 96 | – | – |
| 282 (RRRPPRLPRPLPLRPPPRLPHPIPFRP; Synthetic antimicrobial peptide) [compound 282] | 95 | – | – |
| 100 (RRRPIRPPFRPPFRPPFRPPFRPPFRP; Synthetic antimicrobial peptide) [compound 100] | – | 84 | – |
| 247 (RRRPPRLPRPFPVRPPPRVPRPLPFRP; Synthetic antimicrobial peptide) [compound 247] | 93 | – | – |
